Consider nine compounds from publication PMC6364417, “Kinase inhibitor library screening identifies synergistic drug combinations effective in sensitive and resistant melanoma cells” (Journal of Experimental & Clinical Cancer Research : CR, 2019).

Structures are written as SMILES. Read-outs that look alike come from different tables or passages of the source.

Assay [1] deals with IGR37-XP cells (Vemurafenib-resistant). Kind of assay: Dose-response curves and IC50, PrestoBlue cell viability, 72 h. The settings on record: read-out: Half-maximal inhibitory concentration (IC50).
Method: (§1) All inhibitors used in this study were purchased from Selleck Chemicals (Houston, USA). They were dissolved in DMSO to a stock concentration of 10 mM according to the manufacturer’s instructions and stored at − 80 °C. […] Cell viability was measured with the PrestoBlue Cell Viability Reagent (ThermoFisher Scientific) on a CLARIOstar Monochromator microplate reader (BMG Labtech). Using the GraphPad Prism v5.04 software, the half-maximal inhibitor concentration values (IC50) were determined from the curve using the nonlinear log (inhibitor) vs response-variable slope (four parameters) equation. […] The IC50’s were determined for 3 biological replicates and are listed with their standard deviations.
(§2) Values represent the mean of at least three biological replicates; one representative curve of at least 3 biological replicates is depicted. _XP: cells resistant to Vemurafenib (red), _GP: cells resistant to Dabrafenib (green).
For assay [2], the system named is IGR37-GP cells (Dabrafenib-resistant). Described as above. The settings on record: read-out: Half-maximal inhibitory concentration (IC50).
Method: as §1, §2
Assay [3] has as its system IGR37 cells (parental). The description is as above. The settings on record: read-out: Half-maximal inhibitory concentration (IC50).
Method: as §1, §2
In assay [4] the test system is A375 cells (parental). Kind of assay: Kinase inhibitor library screening, PrestoBlue cell viability, 1 or 10 μM, 72 h. The settings on record: A375 Parental.
For assay [5], the system named is 501Mel-XP cells (Vemurafenib-resistant). The assay is described as above. The settings on record: 501Mel XP.
Assay [6] has as its system 501Mel-GP cells (Dabrafenib-resistant). The description is as above. To be noted: 501Mel GP.
The test system of assay [7] is IGR37-GP cells (Dabrafenib-resistant). The assay is described as above. To be noted: IGR37 GP.
Assay [8] deals with A375-GP cells (Dabrafenib-resistant). Described as above. To be noted: A375 GP.
In assay [9] the test system is IGR37 cells (parental). The description is as above. To be noted: IGR37 Parental.
Assay [10] relates to IGR37-XP cells (Vemurafenib-resistant). The description is as above. To be noted: IGR37 XP.
Assay [11] has as its system 501Mel cells (parental). Described as above. The settings on record: 501Mel Parental. In short, it runs like this:
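Treatment: 72 h with inhibitor. Detection: PrestoBlue, plate reader. Output: viability as % untreated control. Replicates: duplicate minimum. Lines: parental plus Vemurafenib- or Dabrafenib-resistant derivatives.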

The subject of assay [12] is A375-XP cells (Vemurafenib-resistant). Described as above. To be noted: A375 XP.
Assay [13] deals with A375 cells (parental). Kind of assay: Dose-response curves and IC50, PrestoBlue cell viability, 72 h. The settings on record: for IC50: read-out: Half-maximal inhibitory concentration value (IC50), Mean. Type of assay: cell-based, human.
Assay [14] deals with 501Mel-GP cells (Dabrafenib-resistant). Described as above. To be noted: read-out: Half-maximal inhibitory concentration (IC50).
Method: as §1
For assay [15], the system named is 501Mel-XP cells (Vemurafenib-resistant). Described as above. The settings on record: read-out: Half-maximal inhibitory concentration (IC50).
The test system of assay [16] is A375-GP cells (Dabrafenib-resistant). The assay is described as above. The assay is classed as cell-based, human. To be noted: n.e. = did not suppress growth below 50% in the tested concentration range; for IC50: read-out: Half-maximal inhibitory concentration value (IC50), Mean.
For assay [17], the system named is A375-XP cells (Vemurafenib-resistant). The description is as above. The settings on record: n.e. = did not suppress growth below 50% in the tested concentration range; for IC50: read-out: Half-maximal inhibitory concentration value (IC50), Mean. Type of assay: cell-based, human.
Assay [18] relates to 501Mel cells (parental). The assay is described as above. The settings on record: read-out: Half-maximal inhibitory concentration (IC50).
Method: as §1, §2
The test system of the next assay is A375 cells. Kind of assay: Synergy determination with the Chou-Talalay method (CompuSyn), cell viability 72 h. The assay is classed as cell-based, human. To be noted: 72 h cell viability, Chou-Talalay / Synergyfinder. On the procedure:
The Chou-Talalay method to determine possible synergistic effects of selected kinase inhibitor combinations was used as described in [19]. […] Cells were treated with either single inhibitors or combinations thereof at indicated amounts in technical triplicates. The amounts were pre-determined from each inhibitor’s IC50 value and inhibitors were assayed in a defined dilution series and at constant ratio when combined. […] Combination Index (CI) values showing either synergy (< 1) or antagonism (> 1) were calculated with the CompuSyn software (ComboSyn, Inc).

[19] abbreviates: Homo sapiens, A-375, n.e. = did not suppress growth below 50% in the tested concentration range.
Where [20] appears, read: n.e. = did not suppress growth below 50% in the tested concentration range.

Take `CCS(=O)(=O)Nc1ccc2c(c1)/C(=C(/Nc1ccc(CN3CCCCC3)cc1)c1ccccc1)C(=O)N2` [Hesperadin, reference compound]: the IC50 in assay [1] (Homo sapiens, 72 h) amounted to 0.77 µM; in [2] (Homo sapiens, 72 h), 1.03 µM; with IGR37 cells (parental) [3] (Homo sapiens, IGR-37, 72 h) it was 0.339 µM. The “cell viability (kinase inhibitor library screening)” value with A375 cells (parental) [4] (10μΜ, 72 h) came out at 1.9%; in the assay on A375 cells (parental) [4] (1μΜ, 72 h), 7.5%; in assay [5] (1μΜ, 72 h), 70.7%; in [5] (10μΜ, 72 h) it was 3.6%; in [6] (1μΜ, 72 h) it was 81.7%; in assay [6] (10μΜ, 72 h) it was 46.9%. Further, the “cell viability (kinase inhibitor library screening)” value was 52.6% in [7] (1μΜ, 72 h); 12.7% in [7] (10μΜ, 72 h); 13.0% in [8] (1μΜ, 72 h); 9.9% in [8] (10μΜ, 72 h); 56.8% in the assay with IGR37 cells (parental) [9] (1μΜ, 72 h); 48.6% in the assay with IGR37 cells (parental) [9] (10μΜ, 72 h). In addition, the “cell viability (kinase inhibitor library screening)” value is on record as 35.1% in assay [10] (1μΜ, 72 h); 2.0% in assay [10] (10μΜ, 72 h); 45.1% in the assay with 501Mel cells (parental) [11] (1μΜ, 72 h); 33.5% in the assay on 501Mel cells (parental) [11] (10μΜ, 72 h); 13.3% in assay [12] (1μΜ, 72 h); 3.7% in assay [12] (10μΜ, 72 h).
Consider `CNC(=O)c1cc(Oc2ccc(NC(=O)Nc3ccc(Cl)c(C(F)(F)F)c3)cc2)ccn1` [Sorafenib], for which the IC50 in the assay with A375 cells (parental) [13] (setting [19]) worked out at 5.11 µM; in assay [1] (Homo sapiens, 72 h) it was 10 µM; in assay [14] (Homo sapiens, 72 h) it was 6.94 µM; in assay [15] (Homo sapiens, 72 h), 5.43 µM; in assay [2] (Homo sapiens, 72 h) it was 9.52 µM; in assay [16] (Homo sapiens), 2.5 µM. For the same compound, the IC50 was 7.31 µM in the assay on IGR37 cells (parental) [3] (Homo sapiens, IGR-37, 72 h); 4.54 µM in [17] (Homo sapiens); 7.04 µM in the assay on 501Mel cells (parental) [18] (Homo sapiens, 72 h).
In the case of `Nc1cc(C(F)(F)F)c(-c2cc(N3CCOCC3)nc(N3CCOCC3)n2)cn1` [BKM120], the IC50 with A375 cells (parental) [13] (setting [20]) was found to be 0.951 µM; in [1] (IGR37-XP (Vemurafenib-resistant), 72 h cell viability), 1.16 µM; in assay [14] (501Mel-GP (Dabrafenib-resistant), 72 h cell viability) it was 0.919 µM; in assay [15] (501Mel-XP (Vemurafenib-resistant), 72 h cell viability), 0.818 µM; in assay [2] (IGR37-GP (Dabrafenib-resistant), 72 h cell viability), 1.52 µM; in assay [16], 0.788 µM. Moreover, the IC50 with IGR37 cells (parental) [3] (IGR37 parental, 72 h cell viability) came to 0.916 µM; in [17], 1 µM; with 501Mel cells (parental) [18] (501Mel parental, 72 h cell viability), 1.17 µM.
Consider `CCc1cnn2c(NCc3ccc[n+]([O-])c3)cc(N3CCCC[C@H]3CCO)nc12` [Dinaciclib], for which the IC50 worked out at 0.0102 µM in assay [1] (Homo sapiens, 72 h); 0.011 µM in [14] (Homo sapiens, 72 h); 0.011 µM in [15] (Homo sapiens, 72 h); 0.0136 µM in assay [2] (Homo sapiens, 72 h); 0.0082 µM in the assay with IGR37 cells (parental) [3] (Homo sapiens, IGR-37, 72 h); 0.012 µM with 501Mel cells (parental) [18] (Homo sapiens, 72 h).
As to `C[C@@H](Oc1cc(-c2cnn(C3CCNCC3)c2)cnc1N)c1c(Cl)ccc(F)c1Cl` [Crizotinib], the IC50 in the assay with A375 cells (parental) [13] (setting [19]) worked out at 5.55 µM; in [1] (Homo sapiens, 72 h), 5.94 µM; in [14] (Homo sapiens, 72 h) it was 3.28 µM; in [15] (Homo sapiens, 72 h), 1.35 µM; in [2] (Homo sapiens, 72 h), 6.75 µM; in [16] (Homo sapiens), 5.09 µM. Moreover, the IC50 with IGR37 cells (parental) [3] (Homo sapiens, IGR-37, 72 h) was 6.89 µM; in [17] (Homo sapiens), 5.14 µM; with 501Mel cells (parental) [18] (Homo sapiens, 72 h) it was 6.52 µM.
Consider `O=C(O)c1ccc2c(c1)nc(Nc1cccc(Cl)c1)c1ccncc12` [cx-4945], for which the IC50 turned out to be 5.62 µM in the assay with A375 cells (parental) [13] (setting [19]); 6.1 µM in assay [1] (Homo sapiens, 72 h); 4.94 µM in [14] (Homo sapiens, 72 h); 4.65 µM in assay [15] (Homo sapiens, 72 h); 9.09 µM in assay [2] (Homo sapiens, 72 h); 5.34 µM in [16] (Homo sapiens). Besides, the IC50 with IGR37 cells (parental) [3] (Homo sapiens, IGR-37, 72 h) turned out to be 6.66 µM; in assay [17] (Homo sapiens), 5.21 µM; with 501Mel cells (parental) [18] (Homo sapiens, 72 h), 7.17 µM.
With `CO[C@H]1C[C@@H]2CC[C@@H](C)[C@@](O)(O2)C(=O)C(=O)N2CCCC[C@H]2C(=O)O[C@H]([C@H](C)C[C@@H]2CC[C@@H](OC(=O)C(C)(CO)CO)[C@H](OC)C2)CC(=O)[C@H](C)/C=C(\C)[C@@H](O)[C@@H](OC)C(=O)[C@H](C)C[C@H](C)/C=C/C=C/C=C/1C` [Temsirolimus], the “Half-maximal inhibitory concentration value (IC50), Mean” value (in the assay with A375 cells (parental) [13] (setting [20]); in assay [16]; in assay [17]) was “n.e” in each case. The IC50 in [1] (Homo sapiens, 72 h) amounted to 6.93 µM; in assay [2] (Homo sapiens, 72 h) it was 9.45 µM.
As for `O=C(Cc1ccc(-c2ccc(OCCN3CCOCC3)cc2)cn1)NCc1ccccc1` [KX2-391, reference compound], the IC50 was determined as 0.042 µM in the assay with A375 cells (parental) [13] (setting [20]), 0.037 µM in assay [16] and 0.046 µM in assay [17]. The “synergistic effects with the BRAF inhibitors Vemurafenib and/or Dabrafenib (in words)” value in the assay with A375 cells is on record as “did not act synergistically”. For the same compound, the “cell viability (kinase inhibitor library screening)” value worked out at 20.3 in the assay on A375 cells (parental) [4] (1μΜ, in %); 16.5 in the assay with A375 cells (parental) [4] (10μΜ, in %); 9.9 in assay [5] (1μΜ, in %); 14.1 in [5] (10μΜ, in %); 15.9 in [6] (1μΜ, in %); 19.8 in [6] (10μΜ, in %). The “cell viability (kinase inhibitor library screening)” value in [7] (1μΜ, in %) came out at 70.8; in [7] (10μΜ, in %), 68.8; in assay [8] (1μΜ, in %) it was 22.8; in [8] (10μΜ, in %) it was 19.7; in the assay on IGR37 cells (parental) [9] (1μΜ, in %), 11.7; with IGR37 cells (parental) [9] (10μΜ, in %), 19.5. Besides, the “cell viability (kinase inhibitor library screening)” value in assay [10] (1μΜ, in %) is listed as 45.0; in [10] (10μΜ, in %), 36.6; with 501Mel cells (parental) [11] (1μΜ, in %), 16.9; in the assay with 501Mel cells (parental) [11] (10μΜ, in %), 24.4; in assay [12] (1μΜ, in %), 21.2.
In the case of `NC1(c2ccc(-c3nc4ccn5c(=O)[nH]nc5c4cc3-c3ccccc3)cc2)CCC1` [MK-2206], the IC50 turned out to be 7.8 µM in the assay on A375 cells (parental) [13] (setting [19]); 5.08 µM in assay [1] (Homo sapiens, 72 h); 4.36 µM in assay [14] (Homo sapiens, 72 h); 2.23 µM in assay [15] (Homo sapiens, 72 h); 4.73 µM in [2] (Homo sapiens, 72 h); 6.43 µM in assay [16] (Homo sapiens). Besides, the IC50 in the assay with IGR37 cells (parental) [3] (Homo sapiens, IGR-37, 72 h) came out at 4.75 µM; in assay [17] (Homo sapiens) it was 3.38 µM; in the assay on 501Mel cells (parental) [18] (Homo sapiens, 72 h), 4.55 µM.
